Measured values reported in publication PMC4058769 (Organic & biomolecular chemistry, 2009).

Assays:
Type in all cases: cell-based
[1] = system: HeLa (human cervix carcinoma); test: cytotoxicity assay, HeLa
[2] = system: L-929 (mouse fibroblasts); test: antiproliferative assay, L-929
[3] = system: PC-3 cells (prostate cancer); test: in vitro cytotoxic assay, PC-3
[4] = system: MCF-7 cells (breast cancer); test: in vitro cytotoxic assay, MCF-7
[5] = system: K-562 (human leukaemia); test: antiproliferative assay, K-562

CCC(=O)O[C@H]1[C@H](C)O[C@@H](O[C@H]2[C@H](N(C)C)[C@@H](O)[C@H](O[C@H]3[C@@H](CC=O)C[C@@H](C)[C@@H](O)/C=C/C=C/C[C@@H](C)OC(=O)C[C@@H](O)[C@@H]3OC)O[C@@H]2C)C[C@@]1(C)O [compound 1, leucomycin A7]
not active at all: cytotoxic activity in HeLa (in words) [1] | antiproliferative activity in L-929 (in words) [2] | cytotoxic activity in PC-3 (in words) [3] | cytotoxic activity in MCF-7 (in words) [4] | antiproliferative activity in K-562 (in words) [5]
> 66 µM: CC50 ([1]; read-out: HeLa CC50, cytotoxicity, HeLa human cervix carcinoma) | GI50 ([2]; read-out: L-929 GI50, antiproliferative activity, L-929 mouse fibroblasts) | GI50 ([5]; read-out: K-562 GI50, antiproliferative activity, K-562 human leukaemia)
